Experimental data from patent US20260158017A1, “KIF18A INHIBITOR” (WIGEN BIOMEDICINE TECHNOLOGY (SHANGHAI) CO., LTD., priority 2021, published 2026).

How the values were obtained:
[1] = test system: Histone H3 Ser10 sites in HT29 cells; assay: Phosphorylation assay of histone H3 Ser10 sites in HT29 cells (immunofluorescence assay); type: cell-based; conditions: Homo sapiens, HT-29, 6 h after addition, FITC/DAPI ratio
Protocol: Biological Example 5. Phosphorylation Assay of Histone H3 Ser10 Sites in HT29 Cells (Immunofluorescence Assay)
HT29 cells were seeded in a 96-well plate (Fisher 160376) at 8000 cells/well. The next day, the serially diluted compounds were added. 6 h after the addition of the compounds, the cells were washed once with 1×PBS, immobilized with 4% PFA for 15 min, further washed three times with 1×PBS, and permeabilized with 0.02% Triton-X100 for 10 min. A blocking buffer was then added for blocking for 15-30 min, and 1:3000-diluted primary antibodies (Phospho-Histone H3 (Ser10) (D7N8E) XP® Rabbit mAb #53348) were added. The plate was placed at 4° C. overnight. The next day, the cells were washed three times with 1×PBS, and 1:1000-diluted secondary antibodies (Fluorescein (FITC)-conjugated Affinipure Goat Anti-Rabbit IgG (H+L)) were added. The cells were incubated in the dark for 1-2 h and washed three times with 1×PBS. The nuclei were stained with DAPI, and after the staining was completed, photographs were taken using an MD ImageXpress Pico personal high-content imaging analysis system. The ratio of phosphorylation (FITC/DAPI) at H3 Ser10 sites in HT29 cells was quantified. To evaluate the effects of the compounds on the mitosis phase of HT29 cells, the EC50 values of the compounds were calculated.

HT-29 cells = assay: In vitro anti-proliferative activity against HT-29 cells (intracellular ATP content, 72 h); type: cell-based; conditions: Homo sapiens, 72 h after dosing
Protocol: Biological Example 2. In Vitro Anti-Proliferative Activity of the Compounds of the Present Invention Against HT-29 Cells
(§1) HT-29 cells were seeded on a 384-well plate at 3000 cells/well. After overnight adherence culture, DMSO or the compounds serially 1:5-diluted from 5 μM were added. The viability of the cells was assessed 72 h after dosing by measuring the intracellular ATP content. The inhibition percentages of viable cells by the compounds were calculated by comparing with the DMSO group, and the IC50 values were also calculated.

[2] = test system: HT29 subcutaneous xenograft tumor; assay: In vivo pharmacodynamic study, mouse HT29 subcutaneous xenograft tumor model; design: species or system BALB/c nude mice; conditions: for Tumor volume on day 1 of treatment / Tumor volume on day 28 of treatment / TGI (tumor growth inhibition): 80 mg/kg intragastric once daily; for Tumor volume on day 1 of treatment: baseline day 1; for TGI (tumor growth inhibition): day 28 vs day 1
Protocol: Biological Example 4. In Vivo Pharmacodynamic Study-Mouse HT29 Subcutaneous Xenograft Tumor Model
BALB/c nude mice were inoculated subcutaneously with 5×10^6 HT29 cells on the left dorsal side. After the tumors grew to 100-150 mm^3, the mice were randomly divided into the following groups for intragastric administration once daily: group 1: vehicle control group; group 2: compound 661 (80 mg/kg); group 3: compound 669 (80 mg/kg); group 4: compound 677 (80 mg/kg); group 5: compound 714 (80 mg/kg); group 6: compound 727 (80 mg/kg); group 7: compound 740 (80 mg/kg); and group 8: AMG650 (80 mg/kg). The tumor volume was measured twice weekly and at the end of treatment.

HCT116 cells = assay: In vitro anti-proliferative activity against HCT116 cells (intracellular ATP content, 72 h); type: cell-based; conditions: for IC50: Homo sapiens, HCT-116, 72 h after dosing
Protocol: Biological Example 3. In Vitro Anti-Proliferative Activity of the Compounds of the Present Invention Against HCT116 Cells
as §1, with “HCT116” for “HT-29”, “IC 50” for “IC50”

[3] = target: T1, Recombinant human KIF18A (1-467His-tagged) protein (Homo sapiens, UniProt Q8NI77); assay: KIF18A enzyme assay (microtubule-stimulated ATPase activity, ADP-Glo); type: biochemical; conditions: 30 nM KIF18A, 75 μM ATP, 30 μg/mL pig microtubules; read-out: Inhibitory activity against KIF18A IC50
T1 construct: Recombinant human KIF18A (1-467His-tagged) protein; His; made in house
Procedure, shortened: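 Buffer 15 mM Tris pH 7.5, 10 mM MgCl2, 0.01% Pluronic F-68, 1 μM paclitaxel, 30 μg/mL pig microtubules; reactions at room temperature. IC50 from inhibition relative to DMSO.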

T1 sequence (Q8NI77 1-467): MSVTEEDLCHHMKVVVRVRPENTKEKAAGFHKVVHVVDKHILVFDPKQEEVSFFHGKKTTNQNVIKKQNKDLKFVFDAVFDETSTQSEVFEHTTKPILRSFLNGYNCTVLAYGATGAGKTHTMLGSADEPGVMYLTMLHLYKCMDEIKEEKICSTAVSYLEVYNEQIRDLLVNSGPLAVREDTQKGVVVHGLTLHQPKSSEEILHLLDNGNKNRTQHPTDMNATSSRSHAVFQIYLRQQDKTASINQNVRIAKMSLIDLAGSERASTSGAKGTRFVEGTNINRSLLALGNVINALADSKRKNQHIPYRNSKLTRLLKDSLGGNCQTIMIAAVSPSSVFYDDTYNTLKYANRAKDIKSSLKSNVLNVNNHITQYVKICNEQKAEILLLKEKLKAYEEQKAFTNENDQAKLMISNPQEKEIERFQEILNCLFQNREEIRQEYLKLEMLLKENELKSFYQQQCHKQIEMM
T1 sequence (P02550 whole entry partner): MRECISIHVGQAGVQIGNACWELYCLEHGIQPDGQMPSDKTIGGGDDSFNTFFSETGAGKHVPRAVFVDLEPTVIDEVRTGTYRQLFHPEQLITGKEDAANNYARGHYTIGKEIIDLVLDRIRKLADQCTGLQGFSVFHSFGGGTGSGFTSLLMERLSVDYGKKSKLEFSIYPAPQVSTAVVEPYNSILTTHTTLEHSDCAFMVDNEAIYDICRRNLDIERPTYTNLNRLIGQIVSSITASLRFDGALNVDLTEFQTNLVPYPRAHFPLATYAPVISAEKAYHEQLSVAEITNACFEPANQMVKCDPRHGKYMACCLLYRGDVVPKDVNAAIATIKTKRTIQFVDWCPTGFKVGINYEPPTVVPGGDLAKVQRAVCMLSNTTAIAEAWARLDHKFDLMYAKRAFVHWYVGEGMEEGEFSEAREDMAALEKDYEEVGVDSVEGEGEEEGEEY
T1 sequence (P02554 whole entry partner): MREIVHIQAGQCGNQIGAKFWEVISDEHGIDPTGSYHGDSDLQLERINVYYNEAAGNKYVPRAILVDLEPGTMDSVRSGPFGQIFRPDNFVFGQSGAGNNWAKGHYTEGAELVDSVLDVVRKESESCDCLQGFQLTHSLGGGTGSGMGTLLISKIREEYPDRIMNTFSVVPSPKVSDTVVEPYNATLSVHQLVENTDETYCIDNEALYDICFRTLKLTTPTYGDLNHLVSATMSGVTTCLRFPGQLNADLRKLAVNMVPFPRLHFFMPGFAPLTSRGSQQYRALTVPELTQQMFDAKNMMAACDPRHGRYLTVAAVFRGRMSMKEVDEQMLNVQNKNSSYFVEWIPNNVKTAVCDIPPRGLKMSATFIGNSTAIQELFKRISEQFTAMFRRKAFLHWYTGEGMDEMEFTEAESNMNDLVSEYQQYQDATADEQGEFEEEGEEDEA

Row | EC50 [1] | IC50 (HT-29 cells) | IC50 (HCT116 cells) | IC50 [3] | SMILES | Tumor volume on day 1 of treatment [2] | Tumor volume on day 28 of treatment [2] | TGI (tumor growth inhibition) [2] | Anti-proliferative activity against HCT116 cells (in words) (HCT116 cells) | Inhibitory effect on HT29 mouse subcutaneous xenograft tumor (in words) ([2]; 80 mg/kg, comparison with AMG650)
1 | 26.4 nM | 66.1 nM | > 10 µM | ≤ 100 nM | O=C(Nc1ccc(NS(=O)(=O)CCO)cc1N1CCC2(CC1)CC2)c1ccc([N+](=O)[O-])c(N2CCC(F)(F)CC2)n1 [Compound 161] | – | – | – | – | –
2 | 8.4 nM | 11.1 nM | > 10 µM | ≤ 100 nM | COc1ccc(NC(=O)c2ccc(NS(=O)(=O)CCO)cc2N2CCC3(CC2)CC3)nc1N1CCC(F)(F)CC1 [Compound 257] | – | – | – | – | –
3 | 15.8 nM | 59.3 nM | > 10 µM | ≤ 100 nM | COc1ccc(C(=O)Nc2ccc(NS(=O)(=O)CCO)cc2N2CCC3(CC2)CC3)nc1N1CCC(F)(F)CC1 [Compound 321] | – | – | – | – | –
4 | 42.2 nM | 74.6 nM | > 10 µM | ≤ 100 nM | COc1ccc(C(=O)Nc2cnc(NS(=O)(=O)CCO)cc2N2CCC3(CC2)CC3)nc1N1CCC(F)(F)CC1 [Compound 353] | – | – | – | – | –
5 | 23.7 nM | 25.8 nM | > 10 µM | – | COc1ccc(NC(=O)c2ccc(NS(=O)(=O)CCOC(C)=O)cc2N2CCC3(CC2)CC3)nc1N1CCC(F)(F)CC1 [Compound 661] | 121 mm^3 | 704 mm^3 | 61% | – | –
6 | 39.2 nM | – | – | – | COc1ccc(NC(=O)c2ccc(NS(=O)(=O)CCOC(=O)[C@@H](N)C(C)C)cc2N2CCC3(CC2)CC3)nc1N1CCC(F)(F)CC1 [Compound 714] | 121 mm^3 | 424 mm^3 | 80% | – | stronger inhibitory effects

Row | SMILES | EC50 [1] | IC50 (HT-29 cells) | IC50 (HCT116 cells) | IC50 [3] | Tumor volume on day 1 of treatment [2] | Tumor volume on day 28 of treatment [2] | TGI (tumor growth inhibition) [2] | Anti-proliferative activity against HCT116 cells (in words) (HCT116 cells) | Inhibitory effect on HT29 mouse subcutaneous xenograft tumor (in words) ([2]; 80 mg/kg, comparison with AMG650)
7 | Cc1cc(NC(=O)c2ccc(NS(=O)(=O)CCO)cc2N2CCC3(CC2)CC3)nc(N2CCC(F)(F)CC2)n1 [AMG650, reference compound] | 52.3 nM | 109 nM | > 10 µM | – | 121 mm^3 | 649 mm^3 | 64% | neither the compounds of the present invention nor AMG650 have anti-proliferative activity | –
